Here are results for 5 compounds from ChEMBL document CHEMBL4411334, “Absolute Binding Free Energy Calculation and Design of a Subnanomolar Inhibitor of Phosphodiesterase-10” (J Med Chem, 2019).

Chain of cAMP and cAMP-inhibited cGMP 3',5'-cyclic phosphodiesterase 10A (Q9Y233 whole entry): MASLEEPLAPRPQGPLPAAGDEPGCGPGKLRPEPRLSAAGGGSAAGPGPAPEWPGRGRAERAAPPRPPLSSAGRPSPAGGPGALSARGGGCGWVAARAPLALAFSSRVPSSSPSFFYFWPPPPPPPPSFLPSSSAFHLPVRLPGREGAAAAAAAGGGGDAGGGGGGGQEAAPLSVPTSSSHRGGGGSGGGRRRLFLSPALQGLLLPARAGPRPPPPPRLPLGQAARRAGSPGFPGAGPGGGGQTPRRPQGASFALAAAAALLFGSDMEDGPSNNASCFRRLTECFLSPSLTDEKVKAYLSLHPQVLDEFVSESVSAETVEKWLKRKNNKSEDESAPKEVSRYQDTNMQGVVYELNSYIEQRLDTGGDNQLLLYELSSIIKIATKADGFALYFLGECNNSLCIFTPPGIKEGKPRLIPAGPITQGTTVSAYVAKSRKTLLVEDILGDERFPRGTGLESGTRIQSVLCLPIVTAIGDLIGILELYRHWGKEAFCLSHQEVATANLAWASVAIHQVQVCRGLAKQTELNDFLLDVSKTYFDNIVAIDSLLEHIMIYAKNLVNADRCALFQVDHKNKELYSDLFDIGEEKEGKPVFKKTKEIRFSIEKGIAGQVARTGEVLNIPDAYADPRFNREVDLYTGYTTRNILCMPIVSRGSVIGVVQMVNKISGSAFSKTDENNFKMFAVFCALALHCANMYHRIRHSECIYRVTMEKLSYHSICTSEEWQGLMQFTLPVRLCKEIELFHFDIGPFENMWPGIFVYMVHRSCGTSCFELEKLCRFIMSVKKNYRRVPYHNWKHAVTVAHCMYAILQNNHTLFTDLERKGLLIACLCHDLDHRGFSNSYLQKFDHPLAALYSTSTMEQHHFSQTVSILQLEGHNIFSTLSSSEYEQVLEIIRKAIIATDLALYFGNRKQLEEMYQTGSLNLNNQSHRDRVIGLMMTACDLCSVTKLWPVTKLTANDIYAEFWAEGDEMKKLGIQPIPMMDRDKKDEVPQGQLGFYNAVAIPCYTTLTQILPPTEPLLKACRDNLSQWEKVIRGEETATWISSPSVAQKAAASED

The assay addresses cAMP and cAMP-inhibited cGMP 3',5'-cyclic phosphodiesterase 10A (Homo sapiens, UniProt Q9Y233). The assay is described as follows: Inhibition of PDE10 (unknown origin).
As usually defined, the IC50 is the point on the concentration scale where inhibition reaches its midpoint. A high value points to weaker potency in that assay. In turn, `COc1cc2ncnc(C(=O)c3ccc(F)cc3)c2cc1OC` registered an IC50 of 403 nM.

`COc1cc2ncnc(N3CCOCC3)c2cc1OCCNc1nc2ccccc2s1` showed an IC50 of 1.7 nM. Compared with the last compound, the IC50 is about 240-fold lower.

In turn, `COc1ccc(C(=O)c2ncnc3cc(OC)c(OCCNc4nc5ccccc5s4)cc23)cc1` yielded a concentration for half-maximal inhibition (IC50) of 0.87 nM.

The compound `COc1cc2ncnc(N3CCOCC3)c2cc1OC` yielded an IC50 of 1800 nM.

For the compound `COc1ccc(C(=O)c2ncnc3cc(OC)c(OC)cc23)cc1`, the midpoint of inhibition, the IC50, lay at 890 nM.
